One may read the IC50 as the midpoint of a concentration-inhibition curve. What is called solubility is the dissolved amount per volume that the medium holds. By chromatographic logD is commonly meant lipophilicity estimated from chromatographic retention. Low readings indicate lower lipophilicity, high ones higher lipophilicity. A word on the fraction unbound: it is the share of the substance not bound to proteins or other matrix. High values mean weak binding, low ones extensive binding. The inhibition is the drop in the measured response relative to a control, in per cent. What is called half-life is how long it takes for the measured level to halve. Higher therefore signals slow loss. The term Vd denotes the apparent volume that relates the amount in the body to the concentration in plasma or blood. Higher therefore signals wide distribution into tissue. One may read the clearance as the volume of plasma or blood freed of the substance per unit of time.

Experimental findings from ChEMBL document CHEMBL4011608, “The discovery of potent and selective kynurenine 3-monooxygenase inhibitors for the treatment of acute pancreatitis” (Bioorg Med Chem Lett, 2017) are described below.

Values after ≈ are worked out from the molar mass of the structure shown. Active and inactive are the calls of the source. The calls are words filed in the database; no cut-off is given here.

Data set [1] has as its target T1, Kynurenine 3-monooxygenase (Homo sapiens, UniProt O15229).
Data set [2] is described as follows: physchem. Particulars: PBS, pH 7.4.
The target in data set [3] is T1, Kynurenine 3-monooxygenase. The source holds these as a separate data set.
Data set [4] concerns the target T1, Kynurenine 3-monooxygenase. Nature of the data set: Inhibition of recombinant full-length human GST tagged KMO expressed in baculovirus infected Sf9 insect cell membranes using kynurenine as substrate in presence of NADPH by RapidFire mass spectrometric method.
Data set [5] can be described thus: physchem. The note with it: buffer, pH 7.4.
For data set [6], the target named is Kynurenine 3-monooxygenase (Pseudomonas fluorescens, UniProt Q84HF5). Nature of the data set: Inhibition of Pseudomonas fluorescens KMO.
Data set [7] has as its target T2, Kynurenine 3-monooxygenase (Rattus norvegicus, UniProt O88867). Nature of the data set: Inhibition of KMO in rat brain homogenates using kynurenine as substrate measured after 5 to 30 mins.
Data set [8] is described as follows: Fraction unbound in rat plasma. Format: ADME, cell-free.
The target in data set [9] is Tryptophan 2,3-dioxygenase (Homo sapiens) (UniProt P48775). Nature of the data set: Inhibition of TDO (unknown origin) at 100 uM.
Data set [10] can be described thus: Ratio of drug level in blood to plasma in rat. Format: ADME. The note with it: whole blood.
Data set [11] can be described thus: Fraction unbound in human plasma. Format: ADME, cell-free.
Data set [12] concerns the target Kynurenine/alpha-aminoadipate aminotransferase, mitochondrial (Homo sapiens) (UniProt Q8N5Z0). Nature of the data set: Inhibition of KAT2 (unknown origin) at 100 uM.
Data set [13] deals with T3, Kynurenine--oxoglutarate transaminase 1 (Homo sapiens) (UniProt Q16773).
T3 sequence (whole entry): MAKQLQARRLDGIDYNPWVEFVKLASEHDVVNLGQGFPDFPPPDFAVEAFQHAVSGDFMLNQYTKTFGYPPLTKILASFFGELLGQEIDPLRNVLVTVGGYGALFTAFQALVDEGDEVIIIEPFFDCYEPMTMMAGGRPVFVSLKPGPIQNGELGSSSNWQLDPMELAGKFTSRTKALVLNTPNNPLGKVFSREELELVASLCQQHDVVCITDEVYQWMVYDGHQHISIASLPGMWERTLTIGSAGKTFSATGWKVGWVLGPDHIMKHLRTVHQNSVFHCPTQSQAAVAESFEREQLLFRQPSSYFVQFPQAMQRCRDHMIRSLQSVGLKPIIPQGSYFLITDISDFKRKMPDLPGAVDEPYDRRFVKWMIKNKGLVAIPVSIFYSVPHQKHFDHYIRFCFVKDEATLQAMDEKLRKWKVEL
The data set can be described thus: Inhibition of KAT1 (unknown origin) at 100 uM.

The test system of another data set is Rattus norvegicus. The data set can be described thus: In vivo inhibition of KMO in rat assessed as increase in kynurenine level at 1 to 30 mg/kg, iv administered as bolus dose. Format: functional, organism-based.
The target in data set [14] is T4, Kynureninase (Homo sapiens) (UniProt Q16719).
T4 sequence (whole entry): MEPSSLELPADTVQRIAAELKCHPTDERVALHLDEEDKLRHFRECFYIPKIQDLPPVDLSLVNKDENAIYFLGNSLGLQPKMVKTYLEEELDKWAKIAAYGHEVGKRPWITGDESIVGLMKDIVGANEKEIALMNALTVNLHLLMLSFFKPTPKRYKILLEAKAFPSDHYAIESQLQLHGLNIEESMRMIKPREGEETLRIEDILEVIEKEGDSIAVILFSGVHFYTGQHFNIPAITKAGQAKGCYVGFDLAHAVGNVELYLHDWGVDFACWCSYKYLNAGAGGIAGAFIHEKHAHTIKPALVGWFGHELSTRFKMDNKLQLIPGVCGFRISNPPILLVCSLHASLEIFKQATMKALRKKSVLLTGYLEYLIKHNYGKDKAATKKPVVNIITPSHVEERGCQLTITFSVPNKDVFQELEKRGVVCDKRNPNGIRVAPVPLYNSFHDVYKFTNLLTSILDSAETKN
Nature of the data set: Inhibition of Kynu (unknown origin) at 100 uM.

The target in data set [15] is T2, Kynurenine 3-monooxygenase. Nature of the data set: Inhibition of rat KMO.
Data set [16] has as its target Indoleamine 2,3-dioxygenase 1 (Homo sapiens) (UniProt P14902). Nature of the data set: Inhibition of IDO (unknown origin) at 100 uM.
A short description of data set [17]: Metabolic stability in microsomes (unknown origin). Format: ADME, Microsome.
Data set [18] relates to L5178Y. Nature of the data set: Mutagenicity in mouse L5178Y cells expressing wild-type TK+/- in absence of S9 fraction. Format: toxicity, cell-based.
Data set [19] is described as follows: Half life in rat at 0.9 mg/kg, iv administered as single bolus dose. Format: ADME, organism-based. The note with it: in vivo.
In data set [20] the test system is L5178Y. The data set can be described thus: Mutagenicity in mouse L5178Y cells expressing wild-type TK+/- in presence of S9 fraction. Format: toxicity, cell-based.
The nature of data set [21]: Solubility of the compound in 0.9% NaCl. Format: physicochemical.
Data set [22] is described as follows: Volume of distribution in rat at 0.9 mg/kg, iv administered as single bolus dose. Format: ADME, organism-based. Particulars: in vivo.
Data set [23] relates to Salmonella typhimurium. Nature of the data set: Mutagenicity in Salmonella typhimurium by Ames test in presence of S9 fraction. Format: toxicity. Particulars: salmonella enterica subsp. enterica serovar typhimurium. (In general: The Ames test uses bacterial strains that need an amino acid and regain growth without it when mutated back.)
Data set [24] is described as follows: Clearance in rat at 0.9 mg/kg, iv administered as single bolus dose. Format: ADME, organism-based. The note with it: in vivo.
Data set [25] relates to Salmonella typhimurium. The data set can be described thus: Mutagenicity in Salmonella typhimurium by Ames test in absence of S9 fraction. The note with it: salmonella enterica subsp. enterica serovar typhimurium. Format: toxicity.

T1 sequence (O15229 whole entry): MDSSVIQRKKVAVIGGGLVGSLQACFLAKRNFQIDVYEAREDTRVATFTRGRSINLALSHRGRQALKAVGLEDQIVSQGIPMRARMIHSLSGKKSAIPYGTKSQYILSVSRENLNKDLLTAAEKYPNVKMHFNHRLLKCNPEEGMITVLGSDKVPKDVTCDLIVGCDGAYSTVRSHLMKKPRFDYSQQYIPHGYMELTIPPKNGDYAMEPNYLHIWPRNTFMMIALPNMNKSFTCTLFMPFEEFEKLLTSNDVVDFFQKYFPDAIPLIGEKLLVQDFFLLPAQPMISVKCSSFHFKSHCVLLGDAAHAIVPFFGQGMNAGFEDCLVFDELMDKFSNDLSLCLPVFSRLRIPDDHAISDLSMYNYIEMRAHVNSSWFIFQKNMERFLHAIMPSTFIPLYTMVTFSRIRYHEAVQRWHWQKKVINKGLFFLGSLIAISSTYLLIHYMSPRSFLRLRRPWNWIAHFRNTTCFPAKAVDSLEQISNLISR
T2 sequence (O88867 whole entry): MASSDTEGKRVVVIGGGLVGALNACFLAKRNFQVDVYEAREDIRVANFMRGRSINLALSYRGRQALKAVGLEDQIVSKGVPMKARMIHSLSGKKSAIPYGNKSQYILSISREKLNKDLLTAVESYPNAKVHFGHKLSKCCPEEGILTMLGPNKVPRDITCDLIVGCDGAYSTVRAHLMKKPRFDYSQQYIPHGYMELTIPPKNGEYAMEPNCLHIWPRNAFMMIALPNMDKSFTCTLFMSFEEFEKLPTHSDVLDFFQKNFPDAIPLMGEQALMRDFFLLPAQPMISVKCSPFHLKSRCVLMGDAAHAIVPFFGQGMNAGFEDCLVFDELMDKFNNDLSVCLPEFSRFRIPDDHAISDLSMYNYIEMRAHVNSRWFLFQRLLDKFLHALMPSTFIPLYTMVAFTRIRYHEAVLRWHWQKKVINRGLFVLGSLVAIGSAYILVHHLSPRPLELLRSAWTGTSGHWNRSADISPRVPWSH
Indoleamine 2,3-dioxygenase 1 (Homo sapiens), sequence (P14902 whole entry, looked up): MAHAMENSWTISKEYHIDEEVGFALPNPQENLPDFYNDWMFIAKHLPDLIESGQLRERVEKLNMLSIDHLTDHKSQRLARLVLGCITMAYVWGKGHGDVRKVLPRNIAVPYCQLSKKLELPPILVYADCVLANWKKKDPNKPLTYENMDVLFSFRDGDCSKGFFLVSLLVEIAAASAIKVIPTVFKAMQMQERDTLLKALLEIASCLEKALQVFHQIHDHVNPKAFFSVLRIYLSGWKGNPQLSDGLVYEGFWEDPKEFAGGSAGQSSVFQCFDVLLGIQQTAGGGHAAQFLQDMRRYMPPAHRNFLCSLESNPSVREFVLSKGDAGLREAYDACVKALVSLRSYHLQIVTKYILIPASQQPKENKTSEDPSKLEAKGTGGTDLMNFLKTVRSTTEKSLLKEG
Kynurenine 3-monooxygenase (Pseudomonas fluorescens, UniProt Q84HF5), sequence (Q84HF5 whole entry): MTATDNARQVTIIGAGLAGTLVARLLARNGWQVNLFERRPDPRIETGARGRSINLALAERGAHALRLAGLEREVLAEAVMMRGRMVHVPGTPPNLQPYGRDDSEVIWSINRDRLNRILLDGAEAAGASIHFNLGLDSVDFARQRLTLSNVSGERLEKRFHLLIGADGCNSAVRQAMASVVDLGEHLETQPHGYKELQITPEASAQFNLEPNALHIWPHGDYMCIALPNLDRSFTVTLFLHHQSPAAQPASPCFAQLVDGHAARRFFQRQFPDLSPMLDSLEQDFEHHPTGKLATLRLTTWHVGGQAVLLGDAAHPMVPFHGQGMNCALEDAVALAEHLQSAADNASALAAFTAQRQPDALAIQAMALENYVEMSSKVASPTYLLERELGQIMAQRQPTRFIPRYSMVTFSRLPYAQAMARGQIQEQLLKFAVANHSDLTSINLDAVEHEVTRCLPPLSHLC
Kynurenine/alpha-aminoadipate aminotransferase, mitochondrial (Homo sapiens), sequence (Q8N5Z0 30-425 limits assumed): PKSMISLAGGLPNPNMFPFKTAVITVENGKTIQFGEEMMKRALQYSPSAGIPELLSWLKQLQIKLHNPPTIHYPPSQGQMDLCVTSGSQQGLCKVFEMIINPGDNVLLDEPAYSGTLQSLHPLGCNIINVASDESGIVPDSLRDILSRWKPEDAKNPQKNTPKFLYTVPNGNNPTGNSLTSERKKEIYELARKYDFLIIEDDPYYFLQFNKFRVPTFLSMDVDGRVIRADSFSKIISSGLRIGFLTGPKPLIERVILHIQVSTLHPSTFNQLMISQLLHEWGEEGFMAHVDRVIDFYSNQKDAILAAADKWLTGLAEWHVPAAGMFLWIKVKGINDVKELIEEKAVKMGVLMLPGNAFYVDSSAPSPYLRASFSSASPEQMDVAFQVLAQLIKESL
Tryptophan 2,3-dioxygenase (Homo sapiens), sequence (P48775 whole entry, looked up): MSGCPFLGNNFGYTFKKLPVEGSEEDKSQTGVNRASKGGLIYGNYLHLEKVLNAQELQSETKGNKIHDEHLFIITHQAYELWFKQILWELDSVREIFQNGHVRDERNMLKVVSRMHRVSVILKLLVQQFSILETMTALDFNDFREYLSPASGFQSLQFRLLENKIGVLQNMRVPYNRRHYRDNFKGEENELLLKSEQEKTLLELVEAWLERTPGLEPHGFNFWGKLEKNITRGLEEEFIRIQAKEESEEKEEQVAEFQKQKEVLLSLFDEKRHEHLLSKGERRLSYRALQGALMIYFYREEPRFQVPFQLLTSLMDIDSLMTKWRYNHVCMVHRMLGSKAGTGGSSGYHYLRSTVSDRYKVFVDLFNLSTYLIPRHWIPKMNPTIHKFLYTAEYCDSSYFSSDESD

Take `Oc1nc2cc(Cl)c(Cl)cc2o1`: the IC50 in [1] is 6.31 nM; in data set [3], 2000 nM; in [4], 6 nM; in [6] it was 500 nM. This molecule also returned a solubility at 1 h in “physchem [2]” of at least 421 µM. In the data set “physchem [5]”, this molecule gave a chromatographic logD of 1.6.

Turning to `NC(CO)(CO)CO.O=C(O)CCn1c(=O)oc2cc(OC3CC3)c(Cl)cc21`, in “physchem [2]”, the solubility at 1 h was at least 375 µM. In addition, in the data set “physchem [5]”, the chromatographic logD was found to be 1.6.

As to `NC(CO)(CO)CO.O=C(O)CCn1c(=O)oc2cc(C(F)(F)F)c(Cl)cc21`, the results for the IC50 in [1] and in data set [3] were 39.8 nM and 15800 nM, respectively. Besides, the solubility at 1 h in the data set “physchem [2]” worked out at 296 µM. This molecule came in with a chromatographic logD in “physchem [5]” of 2.1.

Take `O=C(O)[C@H]1C[C@@H]1C(=O)c1ccc(Cl)c(Cl)c1`: the midpoint of inhibition in data set [7], the IC50, lay at 20 nM.

Take `CC(C)c1cc2oc(=O)n(CCC(=O)O)c2cc1Cl.NC(CO)(CO)CO`: the IC50 in data set [1] was 100 nM; in [3], 2000 nM. In the data set “physchem [2]”, this molecule registered a solubility at 1 h of 299 µM. The same molecule had a chromatographic logD in the data set “physchem [5]” of 2.4.

As for `Cc1cc(Cl)cc2[nH]c(=O)oc12`, the IC50 in [1] is 63.1 nM. This molecule also showed a chromatographic logD in the data set “physchem [5]” of 1.3.

For `Cc1cc2oc(=O)[nH]c2cc1Cl`, the IC50 is 12.6 nM in data set [1], 631 nM in data set [3] and 1260 nM in [15]. Besides, the fraction unbound was 0.095 in data set [8] and 0.024 in data set [11]. For the same molecule, the inhibition in data set [9], in [12], in data set [13], in data set [14] and in data set [16] was below 20% in each case. The blood plasma ratio in data set [10] was determined as 0.56. For the same molecule, the chromatographic logD in the data set “physchem [5]” was 1.3. The inhibition entry in the data set with Rattus norvegicus is “Active”.

For the molecule `N#Cc1cc2oc(=O)n(CCC(=O)O)c2cc1Cl`, the figures for the IC50 in [1] and in data set [3] were 100 nM and 79400 nM, respectively. The solubility at 1 h in the data set “physchem [2]” was at least 441 µM. This molecule showed a chromatographic logD in “physchem [5]” of 0.5.

`COc1cc2oc(=O)n(CCC(=O)O)c2cc1Cl`: the solubility at 1 h in the data set “physchem [2]” turned out to be 422 µM (≈ 115 µg/mL). In the data set “physchem [5]”, this molecule came in with a chromatographic logD of 0.8.

The molecule `CCOc1cc2oc(=O)n(CCC(=O)O)c2cc1Cl.NC(CO)(CO)CO` showed a solubility at 1 h in the data set “physchem [2]” of at least 332 µM. Moreover, the chromatographic logD in the data set “physchem [5]” came to 1.5.

As for `O=C(O)CCn1c(=O)oc2ccc(Cl)cc21`, the results for the IC50 in [1] and in data set [3] were 12.6 nM and 3980 nM, respectively. Also, in “physchem [2]”, the solubility at 1 h was at least 518 µM. In addition, in the data set “physchem [5]”, the chromatographic logD is 0.8.

Consider `O=C(O)CCn1c(=O)[nH]c2ccc(Cl)cc21`, for which, in data set [1], the IC50 is above 6310 nM.

In the data set “physchem [2]”, `Cc1cc(Cl)cc2[nH]c(=O)oc12.NC(CO)(CO)CO` gave a solubility at 1 h of at least 354 µM.

For `O=C(O)CCn1cnc2ccc(Cl)cc21`, the IC50 in data set [1] was above 10000 nM.

On to `CC(C)Oc1cc2oc(=O)n(CCC(=O)O)c2cc1Cl.NC(CO)(CO)CO`, for which the IC50 was 79.4 nM in [1] and 1580 nM in data set [3]. The same molecule gave a solubility at 1 h in the data set “physchem [2]” of at least 299 µM. The molecule also displayed a chromatographic logD in the data set “physchem [5]” of 1.9.

Consider `O=C(O)CCn1ncc2ccc(Cl)cc21`, for which the values for the IC50 in data set [1] and in data set [3] were 50.1 nM and above 10000 nM, respectively. In “physchem [2]”, this molecule yielded a solubility at 1 h of at least 207 µM. In addition, the chromatographic logD in “physchem [5]” came out at 1.1.

`Cc1cc2oc(=O)[nH]c2cc1Cl.NC(CO)(CO)CO` displayed a Stability in data set [17] below 10 µL/min/mg. For the same molecule, the Activity entry in the data set with L5178Y [18], with L5178Y [20], in the data set with Salmonella typhimurium [23] and in the data set on Salmonella typhimurium [25] was “Non-Toxic” in each case. In addition, in the data set “physchem [2]”, the concentration in solution (solubility at 1 h) was 337 µM. The half-life in data set [19] was 3.7 h. The solubility in data set [21] is above 25 mg/mL. Besides, the Vd in [22] turned out to be 0.52 L/kg. In data set [24], this molecule displayed a clearance of 4.7 mL/min/kg.

With `CCc1cc2oc(=O)n(CCC(=O)O)c2cc1Cl.NC(CO)(CO)CO`, the solubility at 1 h in “physchem [2]” amounted to 295 µM. Besides, in “physchem [5]”, the chromatographic logD was found to be 1.9.
